Assay results published in patent publication US20240299382A1, “COMPOUNDS AND METHODS FOR DEGRADING RCOR1, LSD1, HDAC1 AND HDAC2 IN THE COREST” (University of Florida Research Foundation, Inc., priority 2021, published 2024).
Entries after “also recorded” stand apart in the source; their conditions may differ. Where two headings read alike, the source gives them in different places.

Tests used:
[1] = mice, 50 mg/kg orally; cited from earlier work
HDACs = assay: HDAC inhibition (HDACi activity); format: biochemical
[2] = test system: MDA-MB-231 and T47D cells; assay: Viability assay using CellTiter-Glo, four days; format: cell-based; settings: SR-4370 compared to UF010
Protocol: (§1) MDA-MB-231 and T47D cells were treated with the indicated compounds for four days (FIG. 5A). Viability assays were done using CellTiter-Glo. Shown are normalized values vs. vehicle±SEM (n=3). IC50 values are calculated using Prism 6. Note that SR-3460 has no HDACi activity. Cells were seeded and then continuously treated with SR-4370 or UF010 at the indicated concentrations for 15 days. Colonies were fixed and stained (FIG. 5B).

LSD1 = target: T1, LSD1 (Homo sapiens, UniProt O60341); assay: Western blotting of protein levels in MCF7 cells; format: cell-based; settings: for degradation of LSD1 / LSD1 protein level: MCF7 cells; for degradation of LSD1: 10 μM, 6 hours, Western blotting; for LSD1 protein level: indicated concentrations, 14 hours
T1 construct: Cells were then lysed and subjected to Western blotting with antibodies against the indicated proteins; endogenous in cells; host or cells: MCF7
Protocol: (§2) […] Cells were pretreated with the proteasomal inhibitor MG132 (MG, 3 μM) or the neddylation inhibitor MLN4924 (MLN, 1 μM) for 2 hours. Cells were then lysed and subjected to Western blotting with antibodies against the indicated proteins. The levels of RCOR1 were normalized against that of tubulin and shown as % of DMSO control.
(§3) Cells were pretreated with the proteasomal inhibitor MG132 (MG, 3 μM) or the neddylation inhibitor MLN4924 (MLN, 1 μM) for 2 hours. Cells were then lysed and subjected to Western blotting with antibodies against the indicated proteins. The levels of RCOR1 and LSD1 were normalized against that of tubulin and shown as % of DMSO control.

RCOR1 = target: T2, RCOR1 (Homo sapiens, UniProt Q9UKL0); assay: Western blotting of protein levels in MCF7 cells; format: cell-based; settings: for degradation of RCOR1: 10 μM, 6 hours, Western blotting; for RCOR1 protein level: indicated concentrations
T2 construct: Cells were then lysed and subjected to Western blotting with antibodies against the indicated proteins; endogenous in cells; host or cells: MCF7
T2 sequence (Q9UKL0 whole entry): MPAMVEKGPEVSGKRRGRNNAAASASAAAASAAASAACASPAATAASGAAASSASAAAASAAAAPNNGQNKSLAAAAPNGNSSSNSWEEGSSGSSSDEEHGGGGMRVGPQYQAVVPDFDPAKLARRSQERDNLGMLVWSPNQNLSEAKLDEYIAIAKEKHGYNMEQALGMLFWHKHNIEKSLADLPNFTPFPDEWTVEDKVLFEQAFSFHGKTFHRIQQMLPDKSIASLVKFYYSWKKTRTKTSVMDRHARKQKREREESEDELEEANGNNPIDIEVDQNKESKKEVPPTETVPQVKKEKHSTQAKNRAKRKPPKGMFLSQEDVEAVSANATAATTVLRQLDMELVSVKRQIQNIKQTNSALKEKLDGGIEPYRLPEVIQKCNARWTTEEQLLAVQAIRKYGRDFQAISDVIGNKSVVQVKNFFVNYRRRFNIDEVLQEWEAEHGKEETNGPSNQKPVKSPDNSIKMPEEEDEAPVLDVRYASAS
Protocol: as §2, §3

HDAC1 = target: T3, HDAC1 (Homo sapiens, UniProt Q13547); assay: Western blotting of protein levels in MCF7 cells; format: cell-based; settings: for degradation of HDAC1: 10 μM, 6 hours, Western blotting
T3 construct: endogenous in cells; host or cells: MCF7
T3 sequence (Q13547 whole entry): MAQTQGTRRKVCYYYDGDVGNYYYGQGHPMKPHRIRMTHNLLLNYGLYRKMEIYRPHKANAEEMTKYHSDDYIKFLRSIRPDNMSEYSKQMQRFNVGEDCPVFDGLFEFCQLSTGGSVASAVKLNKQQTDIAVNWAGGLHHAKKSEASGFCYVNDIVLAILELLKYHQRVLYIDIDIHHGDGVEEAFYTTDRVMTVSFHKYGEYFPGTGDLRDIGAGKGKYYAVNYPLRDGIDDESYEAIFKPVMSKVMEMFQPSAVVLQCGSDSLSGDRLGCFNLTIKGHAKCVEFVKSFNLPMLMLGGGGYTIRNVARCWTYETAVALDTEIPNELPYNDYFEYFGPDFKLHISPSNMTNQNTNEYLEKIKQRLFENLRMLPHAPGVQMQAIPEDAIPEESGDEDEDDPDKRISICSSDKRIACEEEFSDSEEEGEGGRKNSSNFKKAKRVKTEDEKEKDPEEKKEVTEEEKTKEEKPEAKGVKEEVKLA
Protocol: (§4) MCF7 cells were exposed to DMSO or the indicated compounds (10 μM) for 6 hours. Cells were pretreated with the proteasomal inhibitor MG132 (MG, 3 μM) or the neddylation inhibitor MLN4924 (MLN, 1 μM) for 2 hours. Cells were then lysed and subjected to Western blotting with antibodies against the indicated proteins. The levels of RCOR1 were normalized against that of tubulin and shown as % of DMSO control.
as §4, with “DMSO, SR-4370 and other compounds at” for “DMSO or”, “concentrations” for “compounds (10 μM)”, “14” for “6”, “RCOR1 and LSD1” for “RCOR1”

HDAC2 = target: T4, HDAC2 (Homo sapiens, UniProt Q92769); assay: Western blotting of protein levels in MCF7 cells; format: cell-based; settings: for degradation of HDAC2: 10 μM, 6 hours, Western blotting
T4 construct: endogenous in cells; host or cells: MCF7
T4 sequence (Q92769 whole entry): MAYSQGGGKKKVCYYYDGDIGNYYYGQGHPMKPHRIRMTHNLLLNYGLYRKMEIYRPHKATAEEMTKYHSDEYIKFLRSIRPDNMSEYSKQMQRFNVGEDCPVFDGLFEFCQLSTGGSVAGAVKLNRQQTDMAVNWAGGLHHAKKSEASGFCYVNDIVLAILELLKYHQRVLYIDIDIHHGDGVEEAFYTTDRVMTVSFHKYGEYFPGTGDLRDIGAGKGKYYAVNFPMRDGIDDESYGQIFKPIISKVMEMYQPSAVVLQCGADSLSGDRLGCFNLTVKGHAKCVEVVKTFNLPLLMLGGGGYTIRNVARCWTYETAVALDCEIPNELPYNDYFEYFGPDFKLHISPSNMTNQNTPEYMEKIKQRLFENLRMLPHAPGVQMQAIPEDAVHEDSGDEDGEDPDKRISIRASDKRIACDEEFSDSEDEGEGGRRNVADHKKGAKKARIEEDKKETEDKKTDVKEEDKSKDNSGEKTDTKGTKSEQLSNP
Protocol: as §4
as §4, with “DMSO, SR-4370 and other compounds at” for “DMSO or”, “concentrations” for “compounds (10 μM)”, “14” for “6”, “RCOR1 and LSD1” for “RCOR1”

HDAC3 = target: T5, HDAC3 (Homo sapiens, UniProt O15379); assay: Western blotting of protein levels in MCF7 cells; format: cell-based; settings: 14 hours
T5 construct: endogenous in cells; host or cells: MCF7
T5 sequence (O15379 whole entry): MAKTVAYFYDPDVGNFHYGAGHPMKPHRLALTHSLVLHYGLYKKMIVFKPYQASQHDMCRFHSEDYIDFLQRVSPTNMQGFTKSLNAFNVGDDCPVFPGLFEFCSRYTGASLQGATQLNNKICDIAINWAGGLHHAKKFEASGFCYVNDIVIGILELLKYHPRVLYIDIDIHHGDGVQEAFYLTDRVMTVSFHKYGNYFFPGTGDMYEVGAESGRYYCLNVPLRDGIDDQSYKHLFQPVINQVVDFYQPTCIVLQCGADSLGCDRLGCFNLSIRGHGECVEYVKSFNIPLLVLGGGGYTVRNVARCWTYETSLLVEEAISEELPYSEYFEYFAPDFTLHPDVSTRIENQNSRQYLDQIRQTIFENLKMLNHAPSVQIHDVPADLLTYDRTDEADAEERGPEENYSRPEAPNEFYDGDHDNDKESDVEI
Protocol: as §4, with “DMSO, SR-4370 and other compounds at” for “DMSO or”, “concentrations” for “compounds (10 μM)”, “14” for “6”, “RCOR1 and LSD1” for “RCOR1”

HDAC8 = target: T6, HDAC8 (Homo sapiens, UniProt Q9BY41); assay: Western blotting of protein levels in MCF7 cells; format: cell-based; settings: 14 hours
T6 construct: endogenous in cells; host or cells: MCF7
T6 sequence (Q9BY41 1-377): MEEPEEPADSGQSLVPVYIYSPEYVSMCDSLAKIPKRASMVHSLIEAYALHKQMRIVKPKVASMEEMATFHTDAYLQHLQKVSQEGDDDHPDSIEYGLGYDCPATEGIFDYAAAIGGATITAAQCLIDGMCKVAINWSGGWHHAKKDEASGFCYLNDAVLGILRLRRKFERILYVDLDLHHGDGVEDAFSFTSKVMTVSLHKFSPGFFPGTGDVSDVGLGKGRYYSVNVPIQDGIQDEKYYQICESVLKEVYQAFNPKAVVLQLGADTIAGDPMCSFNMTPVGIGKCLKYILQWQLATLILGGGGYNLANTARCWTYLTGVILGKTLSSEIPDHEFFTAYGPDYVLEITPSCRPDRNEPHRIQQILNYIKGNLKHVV
Protocol: as §4, with “DMSO, SR-4370 and other compounds at” for “DMSO or”, “concentrations” for “compounds (10 μM)”, “14” for “6”, “RCOR1 and LSD1” for “RCOR1”

LSD2 = assay: Western blotting of protein levels in MCF7 cells; format: cell-based; settings: 14 hours
Protocol: as §4, with “DMSO, SR-4370 and other compounds at” for “DMSO or”, “concentrations” for “compounds (10 μM)”, “14” for “6”, “RCOR1 and LSD1” for “RCOR1”

MTA2 = assay: Western blotting of protein levels in MCF7 cells; format: cell-based; settings: 14 hours
Protocol: as §4, with “DMSO, SR-4370 and other compounds at” for “DMSO or”, “concentrations” for “compounds (10 μM)”, “14” for “6”, “RCOR1 and LSD1” for “RCOR1”

RBBP4 = assay: Western blotting of protein levels in MCF7 cells; format: cell-based; settings: 14 hours
Protocol: as §4, with “DMSO, SR-4370 and other compounds at” for “DMSO or”, “concentrations” for “compounds (10 μM)”, “14” for “6”, “RCOR1 and LSD1” for “RCOR1”

RCOR2 = assay: Western blotting of protein levels in MCF7 cells; format: cell-based; settings: 14 hours
Protocol: as §4, with “DMSO, SR-4370 and other compounds at” for “DMSO or”, “concentrations” for “compounds (10 μM)”, “14” for “6”, “RCOR1 and LSD1” for “RCOR1”

RCOR3 = assay: Western blotting of protein levels in MCF7 cells; format: cell-based; settings: 14 hours
Protocol: as §4, with “DMSO, SR-4370 and other compounds at” for “DMSO or”, “concentrations” for “compounds (10 μM)”, “14” for “6”, “RCOR1 and LSD1” for “RCOR1”

BC cell lines = assay: Colony formation, continuous treatment for 15 days; format: cell-based; settings: continuous treatment 15 days, colonies; compared to UF010
Protocol: as §1

[3] = test system: MDA-MB-231 xenograft tumors; orthotopic EMT6 and 4T1 mouse breast tumors; assay: In vivo efficacy in breast tumor models; settings: mice bearing MDA-MB-231 xenograft, EMT6 or 4T1 tumors
Protocol: Female athymic mice bearing the MDA-MB-231 xenograft tumors were dosed with vehicle or SR-4370 (FIG. 3A). Tumor volumes and final tumor weights are plotted (average±SD). *: p<0.05, **: p<0.01 (FIGS. 3B and 3C). Female BALB/c mice bearing the orthotopic EMT6 (FIG. 3B) and 4T1 (FIG. 3C) mouse breast tumors were dosed with SR-4370 as in (FIG. 3A). At the endpoint, tumors were removed from euthanized mice and weighed. The tumor weight plots are shown (average±SD). The p values were calculated based on t test.

[4] = Tolerability and body weights of tumor-bearing mice dosed with SR-4370
Protocol: Female BALB/c mice bearing the EMT6 tumors were dosed with vehicle or SR-4370 (50 mg/kg) via intraperitoneal injection.
(§5) In vivo tolerability of UF010, the first identified compound of the benzoylhydrazide HDACi class, was evaluated in mice. […] We conducted pilot experiments to evaluate PK parameters of UF010. As with the MTD experiment, mice were dosed orally at 80 mg/kg. Plasma samples were collected at various time points and the amount of UF010 was determined.

[5] = Blood chemistry tests in tumor-bearing athymic mice
[6] = In vivo tolerability / MTD of UF010, oral dosing; settings: mice, oral dosing up to 80 mg/kg
Protocol: as §5

[7] = PK parameters after oral dosing in mice; settings: 80 mg/kg orally
Protocol: as §5

[8] = data from ref 80; cited from earlier work
[9] = MCF7 cells pretreated with MLN4924 (1 μM) or MG132 (3 μM) for 2 hours
[10] = indicated concentrations, 14 hours
[11] = tumor-bearing athymic mice, average ± SD, n = 6
[12] = tumor-bearing mice at the endpoint

Cc1ccc(NC(=O)CCCCCC(=O)Nc2ccccc2N)cc1 [4b]
AUC [1]: 1080 nM·h
Cmax [1]: 1130 nM
T1/2 [1]: 2.76 h
Tmax [1]: 15 min

CCCCNNC(=O)c1ccccc1-c1ccccc1 [SR-3460]
HDACi activity (HDACs): does not inhibit HDACs
cytotoxic effects / BC cell growth, short-term treatment [2]: did not inhibit BC cell growth

CCCCNNC(=O)c1ccc(-c2ccccc2)cc1 [SR-3558]
degradation of LSD1 (LSD1): can degrade
degradation of RCOR1 (RCOR1; MCF7 cells): can degrade
degradation of HDAC1 (HDAC1): can degrade
degradation of HDAC2 (HDAC2): can degrade

CCCCNNC(=O)c1ccc(-c2cncnc2)cc1 [SR-4369]
degradation of LSD1 (LSD1): can degrade
degradation of RCOR1 (RCOR1; MCF7 cells): can degrade
degradation of HDAC1 (HDAC1): can degrade
degradation of HDAC2 (HDAC2): can degrade

CCCCNNC(=O)c1ccc(-c2cccc(F)c2F)cc1 [SR-4370]
downregulation of LSD1 under neddylation or proteasome inhibition (LSD1; [9]): completely reversed
degradation of LSD1 (LSD1): can degrade
LSD1 protein level (LSD1): potent and dose-dependent degradation
downregulation of RCOR1 under neddylation or proteasome inhibition (RCOR1; [9]): completely reversed
degradation of RCOR1 (RCOR1; MCF7 cells): can degrade
DC50 (RCOR1; MCF7 cells, 14 hours, read-out: DC50 (concentration at which 50% of the target protein is degraded) for RCOR1): < 100 nM
RCOR1 protein level (RCOR1; MCF7 cells, 14 hours): potent and dose-dependent degradation
degradation of HDAC1 (HDAC1): can degrade
HDAC1 protein level (HDAC1; [10]): potent and dose-dependent degradation; also recorded: only moderately reduced at a higher concentration
degradation of HDAC2 (HDAC2): can degrade
HDAC2 protein level (HDAC2; [10]): potent and dose-dependent degradation; also recorded: only moderately reduced at a higher concentration
HDAC3 protein level (HDAC3): did not affect
HDAC8 protein level (HDAC8): did not affect
LSD2 protein level (LSD2): largely unaffected
MTA2 protein level (MTA2): only moderately reduced at a higher concentration
RBBP4 protein level (RBBP4): largely unaffected
RCOR2 protein level (RCOR2): largely without affecting
RCOR3 protein level (RCOR3): largely without affecting
cytotoxic effects / BC cell growth, short-term treatment [2]: more potent cytotoxic effects
cytotoxic effects, long-term treatment (BC cell lines): more potent cytotoxic effects
anticancer effects in vivo (tumor volumes, tumor weights) [3]: potent anticancer effects
tolerability ([4]; SR-4370 up to 50 mg/kg, mice, in vivo efficacy study): completely tolerated
body weights during the treatment period ([4]; tumor-bearing mice, BALB/c mice with EMT6 tumors, 50 mg/kg intraperitoneal, 50 mg/kg): not affected; also recorded: safe as judged by body weights
ALP [5, 11]: 49.5 (±8.78) U/L
ALT [5, 11]: 71.60 (±14.06) U/L
BUN [5, 11]: 22.0 (±3.16) mg/dL
Calcium [5, 11]: 8.45 (±0.85) mg/dL
Chloride [5, 11]: 110.0 (±2.17) mmol/L
Cholesterol [5, 11]: 113.0 (±15.92) mg/dL
Creatinine [5, 11]: 0.1 (±0.044) mg/dL
Glucose [5, 11]: 221.17 (±60.6) mg/dL
Phosphorus [5, 11]: 9.73 (±2.69) mg/dL
Potassium [5, 11]: 8.75 (±1.82) mmol/L
Sodium [5, 11]: 147.33 (±1.51) mmol/L
Total bilirubin [5, 11]: 0.25 (±0.054) mg/dL
Total protein [5, 11]: 4.95 (±0.217) g/dL
liver or kidney toxicities [5, 12]: no signs of liver or kidney toxicities
serum concentrations of various analytes versus reference ranges [5, 12]: within reference ranges

CCCCNNC(=O)c1ccc(-c2cc(C)cc(F)c2)cc1 [SR-4372]
degradation of LSD1 (LSD1): can degrade
degradation of RCOR1 (RCOR1; MCF7 cells): can degrade
degradation of HDAC1 (HDAC1): can degrade
degradation of HDAC2 (HDAC2): can degrade

CCCCNNC(=O)c1ccc(Br)cc1 [UF010]
degradation of LSD1 (LSD1): completely inactive
degradation of RCOR1 (RCOR1; MCF7 cells): completely inactive
degradation of HDAC1 (HDAC1): completely inactive
degradation of HDAC2 (HDAC2): completely inactive
HDACi activity (HDACs): potent HDACi
in vivo tolerability [6]: completely tolerated without any signs of toxicity or loss of body weight
oral bioavailability [7]: bioavailable orally
AUC ([7]; plasma): 6.07 µM·h
Cmax ([7]; plasma): 5.95 µM
T1/2 ([7]; plasma): 1.24 h
Tmax ([7]; plasma): 15 min

O=C(/C=C/c1cccc(S(=O)(=O)Nc2ccccc2)c1)NO [belinostat, reference compound]
LSD1 protein level (LSD1): moderately increased
RCOR1 protein level (RCOR1; MCF7 cells, 14 hours): notably increased

Nc1ccccc1NC(=O)c1ccc(CNC(=O)OCc2cccnc2)cc1 [entinostat, reference compound]
LSD1 protein level (LSD1): slightly reduced
RCOR1 protein level (RCOR1; MCF7 cells, 14 hours): notably increased
T1/2 [8]: ~1 h

O=C(CCCCCCC(=O)Nc1ccccc1)NO [vorinostat, reference compound]
LSD1 protein level (LSD1): slightly reduced
RCOR1 protein level (RCOR1; MCF7 cells, 14 hours): notably increased
